Data reported in patent US20250282799A1, “SUBSTITUTED PYRIDO[4,3-d]PYRIMIDINES AS KRAS MODULATORS” (Alterome Therapeutics, Inc., priority 2023, published 2025).
pIC50: −log10 of the molar value.

Test system: KRAS G12V dependent lung adenocarcinoma cell line, NCI-H441
Assay: Cellular pERK (Thr202/Tyr204) FRET/HTRF assay
Type: cell-based
Conditions: Homo sapiens, NCI-H441, cellular pERK (Thr202/Tyr204) HTRF, NCI-H441 cells
Outline: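 NCI-H441 cells (KRAS G12V) were seeded and grown overnight at 37 °C, 5% CO2, then treated with compound in DMSO for 1 hr. Lysates were probed with a Eu3+-cryptate/d2 antibody sandwich against pERK1/2 Thr202/Tyr204 and read by HTRF at 665 nm; IC50 from curve fitting.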

Question: With `C#Cc1c(F)c(F)cc2cccc(-c3ncc4c(N5CCOC[C@H]6[C@H](F)[C@H]65)nc(OC[C@]56CCCN5CC(=C(F)F)C6)nc4c3F)c12` [Example 107, (1S,7S,8S)-2-(2-(((R)-2-(difluoromethylene)tetrahydro-1H-pyrrolizin-7a(5H)-yl)methoxy)-7-(8-ethynyl-6,7-difluoronaphthalen-1-yl)-8-fluoropyrido[4,3-d]pyrimidin-4-yl)-8-fluoro-5-oxa-2-azabicyclo[5.1.0]octane] as the molecule, how does the pIC50 read?
Answer: 6.30 to 7.30

Question: `[2H]C([2H])(Oc1nc(N2CCOC[C@H]3[C@H](F)[C@H]32)c2cnc(-c3cc(N)cc4c(F)cc(F)c(C#C)c34)c(F)c2n1)[C@@]12CCCN1C[C@H](F)C2` [Example 108, 5-ethynyl-6,8-difluoro-4-(8-fluoro-4-((1S,7S,8S)-8-fluoro-5-oxa-2-azabicyclo[5.1.0]octan-2-yl)-2-(((2R,7aS)-2-fluorotetrahydro-1H-pyrrolizin-7a(5H)-yl)methoxy-d2)pyrido[4,3-d]pyrimidin-7-yl)naphthalen-2-amine] was tested. Which pIC50 did it give?
Answer: > 7.30

Question: With `[2H]C([2H])([2H])Oc1c(F)c(F)cc2cccc(-c3ncc4c(N5CCCC[C@H]6[C@H](F)[C@H]65)nc(OC([2H])([2H])[C@@]56CCCN5C[C@H](F)C6)nc4c3F)c12` [Example 109, 7-(6,7-difluoro-8-(methoxy-d3)naphthalen-1-yl)-8-fluoro-4-((1S,7R,8S)-8-fluoro-2-azabicyclo[5.1.0]octan-2-yl)-2-(((2R,7aS)-2-fluorotetrahydro-1H-pyrrolizin-7a(5H)-yl)methoxy-d2)pyrido[4,3-d]pyrimidine] as the molecule, how does the pIC50 read?
Answer: 6.30 to 7.30

Question: With `[2H]C([2H])([2H])Oc1c(F)c(F)c(F)c2cccc(-c3ncc4c(N5CCCC[C@H]6[C@H](F)[C@H]65)nc(OC([2H])([2H])[C@@]56CCCN5C[C@H](F)C6)nc4c3F)c12` [Example 110, 8-fluoro-4-((1S,7R,8S)-8-fluoro-2-azabicyclo[5.1.0]octan-2-yl)-2-(((2R,7aS)-2-fluorotetrahydro-1H-pyrrolizin-7a(5H)-yl)methoxy-d2)-7-(5,6,7-trifluoro-8-(methoxy-d3)naphthalen-1-yl)pyrido[4,3-d]pyrimidine] as the molecule, how does the pIC50 read?
Answer: 5.00 to 6.30

Question: `[2H]C([2H])(Oc1nc(N2CCCC[C@H]3[C@H](F)[C@H]32)c2cnc(-c3cccc4c(F)c(F)c(F)c(C#C)c34)c(F)c2n1)[C@@]12CCCN1C[C@H](F)C2` [Example 111, 7-(8-ethynyl-5,6,7-trifluoronaphthalen-1-yl)-8-fluoro-4-((1S,7R,8S)-8-fluoro-2-azabicyclo[5.1.0]octan-2-yl)-2-(((2R,7aS)-2-fluorotetrahydro-1H-pyrrolizin-7a(5H)-yl)methoxy-d2)pyrido[4,3-d]pyrimidine] was tested. Which pIC50 did it give?
Answer: 5.00 to 6.30

Question: With `[2H]C([2H])(Oc1nc(N2CCCC[C@H]3[C@H](F)[C@H]32)c2cnc(-c3cccc4c(F)cc(F)c(C#C)c34)c(F)c2n1)[C@@]12CCCN1C[C@H](F)C2` [Example 112, 7-(8-ethynyl-5,7-difluoronaphthalen-1-yl)-8-fluoro-4-((1S,7R,8S)-8-fluoro-2-azabicyclo[5.1.0]octan-2-yl)-2-(((2R,7aS)-2-fluorotetrahydro-1H-pyrrolizin-7a(5H)-yl)methoxy-d2)pyrido[4,3-d]pyrimidine] as the molecule, how does the pIC50 read?
Answer: 6.30 to 7.30

Question: `[2H]C([2H])(Oc1nc(N2CCOC[C@H]3[C@H](F)[C@H]32)c2cnc(-c3cncc4ccc(F)c(Cl)c34)c(F)c2n1)[C@@]12CCCN1C[C@H](F)C2` [Example 113, (1S,7S,8S)-2-(7-(5-chloro-6-fluoroisoquinolin-4-yl)-8-fluoro-2-(((2R,7aS)-2-fluorotetrahydro-1H-pyrrolizin-7a(5H)-yl)methoxy-d2)pyrido[4,3-d]pyrimidin-4-yl)-8-fluoro-5-oxa-2-azabicyclo[5.1.0]octane] was tested. Which pIC50 did it give?
Answer: 5.00 to 6.30

Question: With `[2H]C([2H])(Oc1nc(N2CCOC[C@H]3[C@H](F)[C@H]32)c2cnc(-c3cncc4ccc(F)c(C#C)c34)c(F)c2n1)[C@@]12CCCN1C[C@H](F)C2` [Example 114, (1S,7S,8S)-2-(7-(5-Ethynyl-6-fluoroisoquinolin-4-yl)-8-fluoro-2-(((2R,7aS)-2-fluorotetrahydro-1H-pyrrolizin-7a(5H)-yl)methoxy-d2)pyrido[4,3-d]pyrimidin-4-yl)-8-fluoro-5-oxa-2-azabicyclo[5.1.0]octane] as the molecule, how does the pIC50 read?
Answer: > 7.30

Question: With `[2H]C([2H])(Oc1nc(N2CCCO[C@H]3[C@H](F)[C@H]32)c2cnc(-c3cc(N)cc4c(F)c(F)c(F)c(C#C)c34)c(F)c2n1)[C@@]12CCCN1C[C@H](F)C2` [Example 115, 5-ethynyl-6,7,8-trifluoro-4-(8-fluoro-4-((1R,7S,8R)-8-fluoro-2-oxa-6-azabicyclo[5.1.0]octan-6-yl)-2-(((2R,7aS)-2-fluorotetrahydro-1H-pyrrolizin-7a(5H)-yl)methoxy-d2)pyrido[4,3-d]pyrimidin-7-yl)naphthalen-2-amine] as the molecule, how does the pIC50 read?
Answer: > 7.30

Question: `[2H]C([2H])(F)Oc1c(F)ccc2cc(N)cc(-c3ncc4c(N5CCOC[C@H]6[C@H](F)[C@H]65)nc(OC([2H])([2H])[C@@]56CCCN5C[C@H](F)C6)nc4c3F)c12` [Example 116, 6-Fluoro-4-(8-fluoro-4-((1S,7S,8S)-8-fluoro-5-oxa-2-azabicyclo[5.1.0]octan-2-yl)-2-(((2R,7aS)-2-fluorotetrahydro-1H-pyrrolizin-7a(5H)-yl)methoxy-d2)pyrido[4,3-d]pyrimidin-7-yl)-5-(fluoromethoxy-d2)naphthalen-2-amine] was tested. Which pIC50 did it give?
Answer: > 7.30

Question: How did the pIC50 turn out when `[2H]C([2H])(Oc1nc(N2CCCO[C@H]3[C@H](F)[C@H]32)c2cnc(-c3cc(N)cc4c(F)cc(F)c(C#C)c34)c(F)c2n1)[C@@]12CCCN1C[C@H](F)C2` [Example 117, 5-ethynyl-6,8-difluoro-4-(8-fluoro-4-((1R,7S,8R)-8-fluoro-2-oxa-6-azabicyclo[5.1.0]octan-6-yl)-2-(((2R,7aS)-2-fluorotetrahydro-1H-pyrrolizin-7a(5H)-yl)methoxy-d2)pyrido[4,3-d]pyrimidin-7-yl)naphthalen-2-amine] was run?
Answer: > 7.30

Question: How did the pIC50 turn out when `[2H]C([2H])(Oc1nc(N2CCOC[C@@H]3[C@H]2[C@@]3([2H])F)c2cnc(-c3cccc4ccc(F)c(C#C)c34)c(F)c2n1)[C@@]12CCCN1C[C@H](F)C2` [Example 118, (1S,7S,8S)-2-(7-(8-ethynyl-7-fluoronaphthalen-1-yl)-8-fluoro-2-(((2R,7aS)-2-fluorotetrahydro-1H-pyrrolizin-7a(5H)-yl)methoxy-d2)pyrido[4,3-d]pyrimidin-4-yl)-8-fluoro-5-oxa-2-azabicyclo[5.1.0]octane-8-d] was run?
Answer: > 7.30

Question: With `[2H]C([2H])([2H])Oc1c(F)c(F)c(F)c2cc(N)cc(-c3ncc4c(N5CCOC[C@@H]6[C@H]5[C@@]6([2H])F)nc(OC([2H])([2H])[C@@]56CCCN5C[C@H](F)C6)nc4c3F)c12` [Example 119, 6,7,8-trifluoro-4-(8-fluoro-4-((1S,7S,8S)-8-fluoro-5-oxa-2-azabicyclo[5.1.0]octan-2-yl-8-d)-2-(((2R,7aS)-2-fluorotetrahydro-1H-pyrrolizin-7a(5H)-yl)methoxy-d2)pyrido[4,3-d]pyrimidin-7-yl)-5-(methoxy-d3)naphthalen-2-amine] as the molecule, how does the pIC50 read?
Answer: > 7.30

Question: `[2H]C([2H])([2H])Oc1c(F)c(F)c(F)c2cc(N)cc(-c3ncc4c(N5CCOC[C@H]6[C@H](F)[C@H]65)nc(OC[C@]56CC(=C)CN5CCC65CC5)nc4c3F)c12` [Example 120, 6,7,8-trifluoro-4-(8-fluoro-4-((1S,7S,8S)-8-fluoro-5-oxa-2-azabicyclo[5.1.0]octan-2-yl)-2-(((R)-6′-methylenetetrahydrospiro[cyclopropane-1,1′-pyrrolizin]-7a′(5′H)-yl)methoxy)pyrido[4,3-d]pyrimidin-7-yl)-5-(methoxy-d3)naphthalen-2-amine] was tested. Which pIC50 did it give?
Answer: > 7.30

Question: How did the pIC50 turn out when `[2H]C([2H])([2H])Oc1c(F)c(F)c(F)c2cc(N)cc(-c3ncc4c(N5CCOC[C@H]6[C@H](F)[C@H]65)nc(OC[C@@]56CC(=C)CN5CCC65CC5)nc4c3F)c12` [Example 121, 6,7,8-trifluoro-4-(8-fluoro-4-((1S,7S,8S)-8-fluoro-5-oxa-2-azabicyclo[5.1.0]octan-2-yl)-2-(((S)-6′-methylenetetrahydrospiro[cyclopropane-1,1′-pyrrolizin]-7a′(5′H)-yl)methoxy)pyrido[4,3-d]pyrimidin-7-yl)-5-(methoxy-d3)naphthalen-2-amine] was run?
Answer: > 7.30

Question: How did the pIC50 turn out when `[2H]C([2H])(Oc1nc(N2CCOC[C@@H]3[C@H]2[C@@]3([2H])F)c2cnc(-c3cccc4cc(F)c(F)c(C#C)c34)c(F)c2n1)[C@@]12CCCN1C[C@H](F)C2` [Example 122, (1S,7S,8S)-2-(7-(8-ethynyl-6,7-difluoronaphthalen-1-yl)-8-fluoro-2-(((2R,7aS)-2-fluorotetrahydro-1H-pyrrolizin-7a(5H)-yl)methoxy-d2)pyrido[4,3-d]pyrimidin-4-yl)-8-fluoro-5-oxa-2-azabicyclo[5.1.0]octane-8-d] was run?
Answer: > 7.30

Question: With `[2H]C([2H])([2H])Oc1c(F)c(F)c(F)c2cccc(-c3ncc4c(N5CCOC[C@H]6[C@H](F)[C@H]65)nc(OC([2H])([2H])[C@@]56CCCN5C[C@H](F)C6)nc4c3F)c12` [Example 123, (1S,7S,8S)-8-fluoro-2-(8-fluoro-2-(((2R,7aS)-2-fluorotetrahydro-1H-pyrrolizin-7a(5H)-yl)methoxy-d2)-7-(5,6,7-trifluoro-8-(methoxy-d3)naphthalen-1-yl)pyrido[4,3-d]pyrimidin-4-yl)-5-oxa-2-azabicyclo[5.1.0]octane] as the molecule, how does the pIC50 read?
Answer: 6.30 to 7.30

Question: How did the pIC50 turn out when `[2H]C([2H])([2H])Oc1c(F)c(F)c(F)c2cc(N)cc(-c3ncc4c(N5CCOC([2H])([2H])[C@H]6[C@H](F)[C@H]65)nc(OC([2H])([2H])[C@@]56CCCN5C[C@H](F)C6)nc4c3F)c12` [Example 124, 6,7,8-trifluoro-4-(8-fluoro-4-((1S,7S,8S)-8-fluoro-5-oxa-2-azabicyclo[5.1.0]octan-2-yl-6,6-d2)-2-(((2R,7aS)-2-fluorotetrahydro-1H-pyrrolizin-7a(5H)-yl)methoxy-d2)pyrido[4,3-d]pyrimidin-7-yl)-5-(methoxy-d3)naphthalen-2-amine] was run?
Answer: > 7.30
